One data set deals with human TLR7 (Homo sapiens (Human), UniProt Q9NYK1). Description: HEK293-Blue-hTLR-7 cells assay. The data set is classed as cell-based. Conditions: HEK293-Blue-hTLR7 cells, R848 stimulation, 20 hrs, SEAP reporter; read-out: HEK/hTLR7 IC50. The source says: HEK293-BLUE-hTLR-7 CELLS ASSAY:
(§1) A stable HEK293-Blue-hTLR-7 cell line was purchased from InvivoGen (Cat. #: hkb-htlr7, San Diego, California, USA). These cells were originally designed for studying the stimulation of human TLR7 by monitoring the activation of NF-κB. A SEAP (secreted embryonic alkaline phosphatase) reporter gene was placed under the control of the IFN-β minimal promoter fused to five NF-κB and AP-1-binding sites. The SEAP was induced by activating NF-κB and AP-1 via stimulating HEK-Blue hTLR7 cells with TLR7 ligands. Therefore the reporter expression was declined by TLR7 antagonist under the stimulation of a ligand, such as R848 (Resiquimod), for incubation of 20 hrs. The cell culture supernatant SEAP reporter activity was determined using QUANTI-Blue™ kit (Cat. #: rep-qb1, Invivogen, San Diego, Ca, USA) at a wavelength of 640 nm, a detection medium that turns purple or blue in the presence of alkaline phosphatase.
(§2) HEK293-Blue-hTLR7 cells were incubated at a density of 250,000˜450,000 cells/mL in a volume of 170 μL in a 96-well plate in Dulbecco's Modified Eagle's medium (DMEM) containing 4.5 g/L glucose, 50 U/mL penicillin, […], […], 2 mM L-glutamine, 10% (v/v) heat-inactivated fetal bovine serum with addition of 20 μL test compound in a serial dilution in the presence of final DMSO at 1% and 10 μL of 20 μM R848 in above DMEM, perform incubation under 37° C. in a CO2 incubator for 20 hrs. Then 20 μL of the supernatant from each well was incubated with 180 μL Quanti-blue substrate solution at 37° C. for 2 hrs and the absorbance was read at 620-655 nm using a spectrophotometer. The signaling pathway that TLR7 activation leads to downstream NF-κB activation has been widely accepted, and therefore similar reporter assay was modified for evaluating TLR7 antagonist.

The next data set has as its target human TLR8 (Homo sapiens (Human), UniProt Q9NR97). As to the kind of experiment: HEK293-Blue-hTLR-8 cells assay. The data set is classed as cell-based. Conditions: HEK293-Blue-hTLR8 cells, R848 stimulation, 20 hrs, SEAP reporter; read-out: HEK/hTLR8 IC50.
Source text: HEK293-Blue-hTLR-8 Cells Assay:
as §1, with “HEK293-Blue-hTLR-8” for “HEK293-Blue-hTLR-7”, “hkb-htlr8,” for “hkb-htlr7,”, “TLR8” for “TLR7”, “hTLR8” for “hTLR7”, “R848,” for “R848 (Resiquimod),”, “rep-Qb1,” for “rep-qb1,”
HEK293-Blue-hTLR8 cells were incubated at a density of 250,000-450,000 cells/mL in a volume of 170 μL in a 96-well plate in Dulbecco's Modified Eagle's medium (DMEM) containing 4.5 g/L glucose, 50 U/mL penicillin, […], […], 2 mM L-glutamine, 10% (v/v) heat-inactivated fetal bovine serum with addition of 20 μL test compound in a serial dilution in the presence of final DMSO at 1% and 10 μL of 60 μM R848 in above DMEM, perform incubation under 37° C. in a CO2 incubator for 20 hrs. Then 20 μL of the supernatant from each well was incubated with 180 μL Quanti-blue substrate solution at 37° C. for […] and the absorbance was read at 620˜655 nm using a spectrophotometer. The signaling pathway that TLR8 activation leads to downstream NF-κB activation has been widely accepted, and therefore similar reporter assay was modified for evaluating TLR8 antagonist.

Another data set concerns the target human TLR9 (Homo sapiens (Human), UniProt Q9NR96). Description: HEK293-Blue-hTLR-9 cells assay. The data set is classed as cell-based. Particulars: HEK293-Blue-hTLR9 cells, ODN2006 stimulation, 20 hrs, SEAP reporter; read-out: HEK/hTLR9 IC50.
Source text: HEK293-Blue-hTLR-9 Cells Assay:
A stable HEK293-Blue-hTLR-9 cell line was purchased from InvivoGen (Cat. #: hkb-htlr9, San Diego, California, USA). These cells were originally designed for studying the stimulation of human TLR9 by monitoring the activation of NF-κB. A SEAP (secreted embryonic alkaline phosphatase) reporter gene was placed under the control of the IFN-β minimal promoter fused to five NF-κB and AP-1-binding sites. The SEAP was induced by activating NF-κB and AP-via stimulating HEK-Blue hTLR9 cells with TLR9 ligands. Therefore the reporter expression was declined by TLR9 antagonist under the stimulation of a ligand, such as ODN2006 (Cat. #: tlrl-2006-1, Invivogen, San Diego, California, USA), for incubation of 20 hrs. The cell culture supernatant SEAP reporter activity was determined using QUANTI-Blue™ kit (Cat. #: rep-qb1, Invivogen, San Diego, California, USA) at a wavelength of 640 nm, a detection medium that turns purple or blue in the presence of alkaline phosphatase.
as §2, with “HEK293-Blue-hTLR9 cells” for “HEK293-Blue-hTLR7 cells”, “μM ODN2006” for “μM R848”, “2 h” for “2 hrs”, “that TLR9” for “that TLR7”, “evaluating TLR9” for “evaluating TLR7”

The nature of data set [1]: Human microsomal stability assay. The data set is classed as in vitro ADME. Particulars: human liver microsomes, 1 μM test compound, 37° C., pH 7.4. The protocol: Human Microsomal Stability Assay
Human liver microsomes (Cat. NO.: 452117, Corning, USA) were preincubated with test compound for 10 minutes at 37° C. in 100 mM potassium phosphate buffer, pH 7.4. The reactions were initiated by adding NADPH regenerating system. The final incubation mixtures contained 1 μM test compound, 0.5 mg/mL liver microsomal protein, 1 mM MgCl2, 1 mM NADP, 1 unit/mL isocitric dehydrogenase and 6 mM isocitric acid in 100 mM potassium phosphate buffer, pH 7.4. After incubation times of 0, 3, 6, 9, 15 and 30 minutes at 37° C., 300 μL of cold ACN (including internal standard) was added to 100 μL incubation mixture to terminate the reaction. Following precipitation and centrifugation, 100 μL supernatant will be taken out and added 300 μL water. The amount of compound remaining in the samples was determined by LC-MS/MS. Controls of no NADPH regenerating system at zero and 30 minutes were also prepared and analyzed. The results were categorized as: low (<7.0 mL/min/kg), medium (7.0-16.2 mL/min/kg) and high (16.2-23.2 mL/min/kg).
On the technique in general: Microsomes from liver hold many membrane-bound enzymes, among them those of drug oxidation.

human TLR7, sequence (Q9NYK1 27-1049): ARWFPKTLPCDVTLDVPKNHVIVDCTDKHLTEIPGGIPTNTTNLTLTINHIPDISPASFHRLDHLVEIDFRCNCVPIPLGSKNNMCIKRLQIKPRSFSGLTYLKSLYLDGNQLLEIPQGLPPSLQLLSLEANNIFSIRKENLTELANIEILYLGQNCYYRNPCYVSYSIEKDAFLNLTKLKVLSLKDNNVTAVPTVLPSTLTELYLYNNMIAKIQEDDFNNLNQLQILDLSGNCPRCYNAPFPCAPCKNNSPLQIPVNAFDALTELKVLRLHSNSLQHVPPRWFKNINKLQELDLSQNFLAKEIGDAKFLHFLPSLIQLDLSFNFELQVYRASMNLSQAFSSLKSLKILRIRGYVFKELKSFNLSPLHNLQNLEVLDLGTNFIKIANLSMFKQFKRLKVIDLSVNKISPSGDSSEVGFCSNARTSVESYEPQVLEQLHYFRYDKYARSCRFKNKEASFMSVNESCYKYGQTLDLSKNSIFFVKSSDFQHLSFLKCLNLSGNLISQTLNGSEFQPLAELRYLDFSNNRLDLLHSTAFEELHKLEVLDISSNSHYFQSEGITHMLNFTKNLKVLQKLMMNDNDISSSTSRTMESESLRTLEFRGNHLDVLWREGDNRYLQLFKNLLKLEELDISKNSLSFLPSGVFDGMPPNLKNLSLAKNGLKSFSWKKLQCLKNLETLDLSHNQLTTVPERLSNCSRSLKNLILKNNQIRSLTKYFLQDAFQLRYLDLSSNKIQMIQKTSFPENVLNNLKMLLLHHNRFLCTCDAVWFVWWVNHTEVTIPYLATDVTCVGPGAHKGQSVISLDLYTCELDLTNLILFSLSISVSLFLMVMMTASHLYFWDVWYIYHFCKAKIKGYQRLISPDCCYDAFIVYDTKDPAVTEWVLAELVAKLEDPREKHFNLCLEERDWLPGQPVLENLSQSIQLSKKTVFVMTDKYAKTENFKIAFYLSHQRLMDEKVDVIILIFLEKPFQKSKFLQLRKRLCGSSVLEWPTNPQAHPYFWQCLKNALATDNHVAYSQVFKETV
human TLR9, sequence (Q9NR96 26-1032): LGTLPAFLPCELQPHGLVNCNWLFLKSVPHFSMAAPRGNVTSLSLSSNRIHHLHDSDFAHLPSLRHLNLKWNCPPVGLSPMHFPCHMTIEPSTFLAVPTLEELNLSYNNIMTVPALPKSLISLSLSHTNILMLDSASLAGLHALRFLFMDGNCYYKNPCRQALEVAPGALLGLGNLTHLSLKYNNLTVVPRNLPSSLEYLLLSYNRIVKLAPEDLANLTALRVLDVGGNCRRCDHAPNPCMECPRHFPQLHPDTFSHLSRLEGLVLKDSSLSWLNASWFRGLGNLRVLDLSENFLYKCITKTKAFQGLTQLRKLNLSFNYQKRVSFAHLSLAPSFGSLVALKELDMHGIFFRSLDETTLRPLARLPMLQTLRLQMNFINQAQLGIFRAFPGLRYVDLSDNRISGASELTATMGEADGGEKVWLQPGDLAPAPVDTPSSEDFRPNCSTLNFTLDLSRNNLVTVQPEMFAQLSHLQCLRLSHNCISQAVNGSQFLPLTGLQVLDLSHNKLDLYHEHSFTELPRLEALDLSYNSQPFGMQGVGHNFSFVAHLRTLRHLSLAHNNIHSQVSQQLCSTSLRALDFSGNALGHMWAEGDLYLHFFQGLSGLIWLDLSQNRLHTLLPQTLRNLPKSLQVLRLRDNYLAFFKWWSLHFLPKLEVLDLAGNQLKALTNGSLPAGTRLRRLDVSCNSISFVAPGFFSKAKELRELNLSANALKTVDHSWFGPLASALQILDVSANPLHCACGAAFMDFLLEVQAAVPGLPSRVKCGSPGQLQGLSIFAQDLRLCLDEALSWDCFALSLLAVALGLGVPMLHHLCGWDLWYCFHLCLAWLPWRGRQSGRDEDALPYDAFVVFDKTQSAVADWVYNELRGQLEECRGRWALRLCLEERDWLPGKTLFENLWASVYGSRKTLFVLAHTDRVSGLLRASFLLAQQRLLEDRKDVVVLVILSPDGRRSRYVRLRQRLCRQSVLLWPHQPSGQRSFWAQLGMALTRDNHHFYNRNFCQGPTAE
human TLR8, sequence (Q9NR97 27-1041): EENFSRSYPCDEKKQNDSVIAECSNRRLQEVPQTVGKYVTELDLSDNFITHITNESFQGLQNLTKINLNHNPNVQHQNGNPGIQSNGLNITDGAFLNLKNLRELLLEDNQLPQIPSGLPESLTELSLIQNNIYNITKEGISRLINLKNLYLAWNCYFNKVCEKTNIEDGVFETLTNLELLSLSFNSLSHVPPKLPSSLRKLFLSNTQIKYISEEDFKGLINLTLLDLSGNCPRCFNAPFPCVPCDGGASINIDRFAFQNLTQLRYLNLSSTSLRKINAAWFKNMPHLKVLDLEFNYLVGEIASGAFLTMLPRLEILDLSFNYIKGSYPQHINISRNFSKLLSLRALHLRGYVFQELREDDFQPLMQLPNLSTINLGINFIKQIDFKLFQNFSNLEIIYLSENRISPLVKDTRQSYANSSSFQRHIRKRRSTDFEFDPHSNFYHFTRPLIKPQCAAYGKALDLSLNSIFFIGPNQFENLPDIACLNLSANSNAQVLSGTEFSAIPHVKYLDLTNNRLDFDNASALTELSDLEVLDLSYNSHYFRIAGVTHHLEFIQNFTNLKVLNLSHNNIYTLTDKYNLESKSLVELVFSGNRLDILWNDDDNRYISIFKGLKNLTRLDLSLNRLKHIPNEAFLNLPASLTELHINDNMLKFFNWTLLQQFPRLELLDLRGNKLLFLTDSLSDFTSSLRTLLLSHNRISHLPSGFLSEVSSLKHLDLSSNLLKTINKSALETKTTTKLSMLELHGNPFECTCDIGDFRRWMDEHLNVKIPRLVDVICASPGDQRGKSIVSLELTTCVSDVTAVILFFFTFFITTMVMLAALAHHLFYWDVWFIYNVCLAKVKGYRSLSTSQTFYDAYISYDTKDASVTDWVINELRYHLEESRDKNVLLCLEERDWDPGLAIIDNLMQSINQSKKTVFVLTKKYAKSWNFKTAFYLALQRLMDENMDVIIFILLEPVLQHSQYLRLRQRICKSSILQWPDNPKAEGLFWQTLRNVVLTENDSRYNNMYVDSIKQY

Regarding `[2H]c1ccc2c(N3C[C@@H]4C[C@H](n5ncc6c5CNCC6)CN4[C@H](C)C3)ccc(C#N)c2n1` [Example 23A, 2-Deuterio-5-[(4R,7S,8aS)-4-methyl-7-(4,5,6,7-tetrahydropyrazolo[3,4-c]pyridin-1-yl)-3,4,6,7,8,8a-hexahydro-1H-pyrrolo[1,2-a]pyrazin-2-yl]quinoline-8-carbonitrile], the IC50 at human TLR7 came to 10.5 nM; at human TLR8 it was 13.8 nM; on human TLR9, 407 nM. Moreover, the “CL (h)” value in data set [1] is 8.1 mL/min/kg.
Taken in the same sequence, the figures for `[2H]c1ccc2c(N3C[C@@H]4C[C@H](n5cc6c(n5)CNCC6)CN4[C@H](C)C3)ccc(C#N)c2n1` [Example 23B, 2-deuterio-5-[(4R,7S,8aS)-4-methyl-7-(4,5,6,7-tetrahydropyrazolo[3,4-c]pyridin-2-yl)-3,4,6,7,8,8a-hexahydro-1H-pyrrolo[1,2-a]pyrazin-2-yl]quinoline-8-carbonitrile] were 12 nM, 3.4 nM, 154 nM and 6.2 mL/min/kg.
Taken in the same sequence, the figures for `[2H]c1ccc2c(N3C[C@@H]4C[C@H](N5CCc6ncc(N7CCNCC7)nc6C5)CN4[C@H](C)C3)ccc(C#N)c2n1` [Example 24] were 4.3 nM, 5.9 nM, 95.2 nM and 8.9 mL/min/kg.

The values are drawn from patent US12486273B2 (Hoffmann-La Roche Inc., priority 2019, dated 2025).
